Legend:
[1] = test system: taste fibers predominantly responsive to sweeteners (S fibers) in the Chorda Tympani (CT) nerves; test: taste nerve fiber recordings during stimulation of the tongue; format: in vivo; details: fiber nerve recordings from rhesus monkey Chorda Tympani nerves, FIG. 4
Experimental: (§1) To test the sweetness potency of SEQ ID NOS. 3 and 5, we tested the perception of sweetness using a concentration of 100 ug/ml of the protein in water. One test panel consisted of monkeys. The other test panel was of humans. The response measured in the monkeys was level of activity of taste nerve fibers during the stimulation of the tongue with different compounds being tested. Humans were requested to score the sweetness sensations of the stimuli with a magnitude labeled scale in accordance with the techniques of B. Green et al., 21 Chemical Senses 323 (1996) (e.g. barely detectable; weak; moderate; strong; very strong; strongest imaginable).
We used rhesus monkey nerves as an animal model to test primate taste responses to sweet proteins. […] The triangle markings on FIG. 4 indicate exposure timing.

[2] = level of heat typically present during baking of foods; cited from earlier work
[3] = test system: humans; test: human panel sweetness scoring on a labeled magnitude scale; format: in vivo; details: 100 ug/ml of the protein in water; monkey and human test panels
Experimental: as §1

Substance | nerve response recording profile compared with sucrose [1] | stability to heat [2] | sweetness relative to recombinantly produced wild type (des-pGlul) [3]
Brazzein: sweet protein; SEQ ID NO: 1 is natural Brazzein minus the beginning Glu, recombinantly produced wild type (DKCKKVYENYPVSKCQLANQCNYDCKLDKHARSGECFYDEKRNLQCICDYCEY; listed as Pentadiplandra brazzeana) | more distinct | stable | 
D29N: Brazzein variant in which the Asp at position 29 is replaced with Asn (DKCKKVYENYPVSKCQLANQCNYDCKLNKHARSGECFYDEKRNLQCICDYCEY) | remarkably close to that of sucrose |  | 3 to 4 times
Glu36Ala: comparative Brazzein variant with Glu at position 36 replaced by Ala (QDKCKKVYENYPVSKCQLANQCNYDCKLDKHARSGACFYDEKRNLQCICDYCEY; UniProt P56552 1-54, looked up, variant E36A) | more distinct |  | 
D29K: Brazzein variant in which the Asp at position 29 is replaced with Lys (DKCKKVYENYPVSKCQLANQCNYDCKLKKHARSGECFYDEKRNLQCICDYCEY) |  |  | 3 to 4 times

Source: patent publication US7153535B2, “Protein sweetener” (Wisconsin Alumni Research Foundation, priority 2002, dated 2006)
